The values below come from patent US6656941B2, “Aryl substituted tetrahydroindazoles” (Neurogen Corporation, priority 2000, dated 2003).

By melting point is commonly meant the temperature of the solid-liquid transition. Compound `CCCNCCOc1ccc(NC(=O)c2n[nH]c3c2C(=O)CCC3)cn1` [Example 4, 4-Oxo-4,5,6,7-tetrahydro-1H-indazole-3-carboxylic acid [6-(2-propylamino-ethoxy)-pyridin-3-yl]-amide] gave a melting point of 120 °C.
